Data from patent publication US20130012434A1, “NOVEL SPIRO IMIDAZOLONES AS GLUCAGON RECEPTOR ANTAGONISTS, COMPOSITIONS, AND METHODS FOR THEIR USE” (priority 2010, published 2013).

Target: T1, recombinant human glucagon receptor (Homo sapiens, UniProt P47871)
T1 construct: expressed in transfected cells; host or cells: CHO cells
Test: Inhibition of glucagon-stimulated intracellular cAMP assay
Assay type: cell-based
Conditions: CHO cells expressing recombinant human glucagon receptor, stimulated with 300 pM glucagon, LANCE cAMP kit
Protocol: Inhibition of Glucagon-Stimulated Intracellular cAMP Assay
Chinese hamster ovary (CHO) cells expressing the recombinant human glucagon receptor were harvested with the aid of non-enzymatic cell dissociation solution (GIBCO 13151-014). The cells were then pelleted and suspended in the stimulation buffer (1×HBSS, 5 mM Hepes, 0.1% BSA, pH7.4 in presence of complete protease inhibitor and phosphodiesterase inhibitor). The adenylate cyclase assay was conducted following the LANCE cAMP Kit (Perkin Elmer, AD0262) instructions. Briefly, cells were preincubated with anti-cAMP antibody in the stimulation buffer with a final concentration of 3% DMSO for 30 minutes and then stimulated with 300 pM glucagon for 45 minutes. The reaction was stopped by incubating with the detection buffer containing Europium chelate of the Eu-SA/Biotin-cAMP tracer for 20 hours. The fluorescence intensity emitted from the assay was measured at 665 nm using PheraStar instruments. […] Standard cAMP concentrations were conducted concurrently for conversion of fluorescence signal to cAMP level. Data was analyzed using GraphPad Prism. IC50 values were calculated using non-linear regression analysis assuming single site competition. […] Some of the compounds of the invention shown in the examples measured less than about 5 μM in this assay; other examples measured less than about 500 nM; others less than about 100 nM. […]

T1 sequence (P47871 26-477): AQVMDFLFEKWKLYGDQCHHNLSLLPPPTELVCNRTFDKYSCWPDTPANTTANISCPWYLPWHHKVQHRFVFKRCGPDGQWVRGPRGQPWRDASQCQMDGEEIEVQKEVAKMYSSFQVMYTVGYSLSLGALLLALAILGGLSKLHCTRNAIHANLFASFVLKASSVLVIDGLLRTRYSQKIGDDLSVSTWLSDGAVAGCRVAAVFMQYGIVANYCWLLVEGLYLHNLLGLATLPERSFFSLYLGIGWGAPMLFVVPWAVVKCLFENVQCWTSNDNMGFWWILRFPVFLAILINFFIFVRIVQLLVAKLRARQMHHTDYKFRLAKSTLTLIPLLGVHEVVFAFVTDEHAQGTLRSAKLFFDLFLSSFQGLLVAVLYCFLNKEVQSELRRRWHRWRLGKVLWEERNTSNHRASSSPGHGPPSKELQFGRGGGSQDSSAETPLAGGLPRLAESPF

Structure (SMILES) | IC50
CC(C)(C)CC[C@H](c1ccc(C(=O)NCCC(=O)O)cc1)N1C(=O)C(c2cccc(F)c2)=NC12CCC([Si](C)(C)C)CC2 (some centres unmarked) [Example 5.26] | 61 nM
CC(C)(C)CCOc1cccc(C2=NC3(CCC(C(C)(C)C)CC3)N([C@H](CCC(C)(C)C)c3ccc(C(=O)NCc4nn[nH]n4)cc3)C2=O)c1 (some centres unmarked) [Example 5.69] | 22 nM
